For 92 molecules, AC50 results are on record in PubChem BioAssay AID743417 (Broad Institute, 2014).

The test system of this assay is Clone20 osteoblast Shn3 3'UTR firefly luciferase, 24 h. The assay can be described thus: Shn3 3'UTR reporter inhibitors, dose response, cell-based, Clone20 osteoblasts, luminescence, dry powder, set 2 (AID 743417).

Inconclusive results are not listed. Activity calls are given as the source filed them.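 How the source made its calls: active means compounds lowering the luciferase signal with a fitted half-maximal dose at most twice their top valid dose (cut at about 30 µM in these data); inconclusive means flat fits with moderate signal loss, or poor fits; inactive means the rest.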 Some results are limits rather than exact numbers.

On to `CN(Cc1ccc(Cl)c(Cl)c1)C(=O)c1cccc(S(=O)(=O)N2CCN(Cc3ccccc3)CC2)c1`, for which the half-maximal activity concentration (AC50) was 3.47 µM.

Turning to `CC1Cc2cc(S(=O)(=O)N3CCC(C(=O)N4CCN(c5ccccc5F)CC4)CC3)ccc2N1C(=O)C1CC1` (configuration not stated), the AC50 is 1.65 µM.

Take `CC(C)(C)C(=O)/C(=C/c1ccncc1)n1cncn1`: the AC50 is 3.27 µM.

As to `CCc1c(C)nc2ncnn2c1N1CCN(S(=O)(=O)c2ccc(OC)cc2)CC1`, the AC50 is 1.16 µM.

In the case of `N=c1n(Cc2ccc(Cl)cc2)c2ccccc2n1CC(O)COc1ccccc1` (configuration not stated), the AC50 was 2.34 µM.

Regarding `CCn1nc(/C=C/c2ccccc2)nc2c(=O)n(C)c(=O)nc1-2`, the AC50 is 2.57 µM.

With `CN1OC[C@@H]2CN[C@H](c3ccc(-c4cc5ccccc5o4)cc3)C[C@@H]21`, the AC50 was under 0.26 µM.

For `CCCCCCN1C[C@@H](n2cc(-c3ccc(F)cc3)nn2)[C@H](O)C[C@@H]1c1ccc(Cl)cc1`, the AC50 was 12.5 µM.

Regarding `Cc1nn(-c2ccccc2)c(C)c1C(=O)OC(C)C(=O)NC1CCCCC1` (configuration not stated), the AC50 is 8.19 µM.

Regarding `O=C(Nc1cccc(Cl)c1Cl)C1CC(=O)N(c2ccc(Br)cc2)C1` (configuration not stated), the AC50 was 8.23 µM.

As for `Cc1cc(C)nc(SCC(=O)Nc2ccnc3ccccc23)n1`, the AC50 is 0.462 µM.

Turning to `Cc1cc(C(=O)CSc2nc(N)cc(=O)[nH]2)c(C)n1-c1cccc(F)c1`, the AC50 is 1.66 µM.

With `O=C(OCc1ccccc1)c1ccc(NCc2cc(O)ccc2O)cc1`, the AC50 is 0.711 µM.

For `Nc1nnc(SCC(=O)Nc2ccc(N3CCOCC3)cc2)s1`, the AC50 is 16.8 µM.

In the case of `CC(=O)C1(C)CCC2C3C=C(C)C4=CC(=O)CCC4(C)C3CCC21C` (configuration not stated), the AC50 is 9.83 µM.

Take `CCOc1cccc(CNCCc2c(C)[nH]c3ccc(OC(F)(F)F)cc23)c1O`: the AC50 is 0.611 µM.

`COc1cccc(CN(C)C(=O)c2ccc(OCC(=O)Nc3cccc(C(F)(F)F)c3)c(OC)c2)c1`: the concentration at half-maximal activity (AC50) is 4.93 µM.

Take `CN(CC(=O)Nc1ccccc1Cl)C(=O)c1cccc(S(=O)(=O)N2CCN(c3ccc(F)cc3)CC2)c1`: the AC50 was 3.62 µM.

With `O=C(Cc1ccc(Cl)cc1)Nc1ccc(N2CCN(C(=O)c3ccco3)CC2)cc1`, the AC50 is > 70 µM (inactive).

Regarding `CCOc1ccc(S(=O)(=O)N(C)c2ccc(OCC(=O)Nc3nc4ccccc4s3)cc2)cc1`, the AC50 is 2.82 µM.

Take `Nc1nc(N)c(-c2cccc(C(F)(F)F)c2)c(Cc2cccc(C(F)(F)F)c2)n1`: the AC50 was 3.6 µM.

On to `COc1ccccc1CNc1nc(NCc2ccccc2OC)c2sccc2n1`, for which the AC50 is 6.33 µM.

For the molecule `CCOc1cc(CNCCc2ccc(S(N)(=O)=O)cc2)ccc1OCc1ccc(Cl)cc1`, the AC50 is 3.87 µM.

Take `COc1ccc(-n2c(C)cc(C(=O)CSc3nnc(-c4cccs4)o3)c2C)cc1`: the AC50 was 5.03 µM.

In the case of `CN(C)C1=NC[C@H](Cc2ccccc2)N1CCCCc1ccccc1`, the AC50 is 8.01 µM.

For `COc1ccc(C(=O)NCCN(C)C)c2nc3ccccc3cc12`, the AC50 is 5.78 µM.

As for `O=C(CN1CCCC1c1cccs1)Nc1cc(S(=O)(=O)N2CCCCC2)ccc1Cl` (configuration not stated), the half-maximal activity concentration (AC50) is 14.4 µM.

On to `COc1ccccc1-c1cc(C(F)(F)F)nc(S(=O)(=O)CCCC(=O)Nc2cccnc2Cl)n1`, for which the AC50 was 10.6 µM.

Turning to `COc1ccc(NS(=O)(=O)c2ccc3ccccc3c2)c2ncccc12`, the AC50 is 4.82 µM.

Consider `COC(=O)Oc1ccc(/C=C/C(=O)OC(C)C)cc1OC(=O)OC`, for which the AC50 is 3.29 µM.

On to `O=C1/C(=C/c2ccccc2)C[C@@]2(O)[C@H]3Cc4ccc(O)c5c4[C@@]2(CCN3CC2CC2)C1O5` (some centres not stated), for which the AC50 was 4.64 µM.

`CCc1ccc(CNCc2ccc(OCC(O)CN(C)Cc3ccccc3)cc2)nc1` (configuration not stated): the AC50 is 4.43 µM.

`Fc1ccc(C(OCCN2CCN(CCCc3ccccc3)CC2)c2ccc(F)cc2)cc1`: the AC50 was 6.17 µM.

As to `Nc1nc(N)c2cc(CNc3ccc(Cl)c(Cl)c3)ccc2n1`, the AC50 was 0.956 µM.

`CC(=O)NC(c1ccc(Cl)cc1Cl)c1ccc2cccnc2c1O` (configuration not stated): the AC50 was 0.465 µM.

With `C=C1C(=O)OC2CC1C(OC(C)=O)CC(C)=CCCC(C)=CCCC2(C)O` (configuration not stated), the AC50 is 0.91 µM.

As for `CNC(=O)c1nnsc1S(=O)c1ccc(Cl)cc1` (configuration not stated), the AC50 is 2.02 µM.

With `CCCC(=O)OCCNc1cc(Sc2nc3ccccc3[nH]2)c2nonc2c1[N+](=O)[O-]`, the AC50 is 6.63 µM.

Turning to `Cc1ccc2cc(CN(CC3CCCO3)C(=O)NC3CCCCC3)c(=O)[nH]c2c1C` (configuration not stated), the AC50 is 4.49 µM.

For `Cc1oc(-c2ccc(Cl)cc2)nc1CS(=O)CC(=O)NCCCN1CCN(Cc2ccccc2)CC1` (configuration not stated), the AC50 is 2.52 µM.

`CCOc1ccc(Cn2nnc(C(=O)Nc3cc(OC)cc(OC)c3)c2N)cc1`: the AC50 was 5.3 µM.

For `COC(=O)C1CN(C#N)N(c2ccc(Cl)cc2)C12c1ccccc1-c1ccccc12` (configuration not stated), the AC50 was under 0.26 µM.

Consider `CCN(CC)CCCNc1nc2ccccc2c2[nH]c3ccc(OC)cc3c12`, for which the AC50 was 12.3 µM.

With `COc1cccc(C2CC(c3ccc(C)cc3)=NN2C(=O)c2ccccc2F)c1OC` (configuration not stated), the AC50 was 36 µM.

For the molecule `O=C(c1ccccc1)C(CN1CCCC1)c1ccccc1` (configuration not stated), the AC50 was 10.7 µM.

Regarding `Cc1cc(NC(=O)CCCS(=O)(=O)c2nc(-c3cccs3)cc(C(F)(F)F)n2)no1`, the half-maximal activity concentration (AC50) is 1.73 µM.

With `Cc1cccc(CS(=O)(=O)c2ncc(Cl)c(C(=O)Nc3nnc(C(C)C)s3)n2)c1`, the AC50 was 1.62 µM.

Take `CCC(=O)NC(C)c1cc(Cl)c2cccnc2c1O` (configuration not stated): the AC50 is 5.19 µM.

For `CCCCCn1c(=O)c(C(=O)Nc2cnccn2)c(O)c2ccccc21`, the AC50 was 1.54 µM.

Turning to `CN(c1ccccc1)S(=O)(=O)c1cccc(NC(=O)c2ccc3ncsc3c2)c1`, the AC50 is 17.2 µM.

As to `COc1ccc(OC)c(NC(=O)COC(=O)c2c3c(nc4ccccc24)CCCC3)c1`, the AC50 was 8.67 µM.

In the case of `Cc1ccc(C(C)C)cc1NC(=O)Nc1ccc([N+](=O)[O-])cc1`, the AC50 is 7.19 µM.

For `CCOc1ccc(-c2nnc(N3CCCCC3)c3ccccc23)cc1`, the AC50 was 14.9 µM.

With `CCCc1nc2ccc(Br)cc2c(=O)n1-c1ccc([N+](=O)[O-])c(C(F)(F)F)c1`, the AC50 is 15.7 µM.

On to `O=C(CCN1CCc2ccccc2C(O)(c2ccccc2)C1)c1ccc2c(c1)OCCO2` (configuration not stated), for which the AC50 is 23.1 µM.

For `Fc1ccc2[nH]c3c(N4CCc5ccccc5C4)ncnc3c2c1`, the AC50 was 0.466 µM.

`CC(=O)Oc1ccc(OC(C)=O)c(SCCCCCCl)c1`: the half-maximal activity concentration (AC50) is 2.58 µM.

Take `O=C(Cn1cc(C(=O)C2CC2)c2ccccc21)Nc1ccccc1Cl`: the AC50 is 3.42 µM.

In the case of `CC(=O)N1CCCc2cc(S(=O)(=O)N3CCCC(C(=O)N4CCN(c5cccc(Cl)c5)CC4)C3)ccc21` (configuration not stated), the AC50 was 1.9 µM.

As for `COc1ccc(C(NC(C)=O)c2ccc3cccnc3c2O)c(OC)c1` (configuration not stated), the AC50 is 1.74 µM.

Turning to `CC(C)C(=O)N1CCN(c2ccc(NC(=O)c3ccc([N+](=O)[O-])o3)cc2Cl)CC1`, the AC50 was 0.954 µM.

Regarding `COc1cc(C2c3cc4c(cc3C(OC3OC5COC(c6cccs6)OC5C(O)C3O)C3COC(=O)C23)OCO4)cc(OC)c1O` (configuration not stated), the AC50 is 1.11 µM.

On to `CCOc1ccc(C(=O)C(CCC(CN(C)C)C(=O)c2ccc(OCC)cc2)CN(C)C)cc1` (configuration not stated), for which the AC50 was 1.61 µM.

On to `O=[N+]([O-])c1cc(S(=O)(=O)C(F)(F)F)ccc1Sc1nc2ccccc2s1`, for which the AC50 is 2.45 µM.

On to `O=[N+]([O-])c1c(NCCCO)cc(Sc2nc3ccccc3s2)c2nonc12`, for which the AC50 is 1.58 µM.

With `COc1ccc(CNCCc2ccc(Cl)cc2)cc1OCc1ccccc1`, the AC50 was 5.59 µM.

Consider `CSc1nnc(NC(=O)c2nc(S(=O)(=O)Cc3ccc(C)cc3)ncc2Cl)s1`, for which the AC50 was 3.18 µM.

Regarding `O=C(c1ccccc1)N1CCN(c2ncnc3sc4c(c23)CCC4)CC1`, the AC50 was 4.14 µM.

`CC(=O)c1cccc(NS(=O)(=O)c2ccc(-c3cnc(C4CC4)o3)cc2)c1`: the half-maximal activity concentration (AC50) was 5 µM.

In the case of `Cc1cccc(C)c1NC(=O)c1nc(S(=O)(=O)Cc2ccccc2)ncc1Cl`, the AC50 is 4.33 µM.

As to `CCN(CC)S(=O)(=O)c1ccc(C)c(NC(=S)N2CCN(C/C=C/c3ccccc3)CC2)c1`, the AC50 is 2.55 µM.

Take `Cc1ccc(S(=O)(=O)N2CCN(C(=O)C3CCN(c4ncnc5sc(C)c(C)c45)CC3)CC2)c(C)c1`: the AC50 was 2.12 µM.

As for `CCn1c(/C=C/c2ccc([N+](=O)[O-])o2)nc2ccccc2c1=O`, the AC50 is 4.51 µM.

Turning to `CCOC(=O)CS(=O)(=O)c1nc(-c2ccccc2)cc(C(F)(F)F)n1`, the AC50 was 3.42 µM.

Regarding `O=C(C1=C[C@@H](C2CC2)C[C@@H](OCCCCO)O1)N1CCN(Cc2ccccc2)CC1`, the AC50 was > 70 µM (inactive).

As to `CCCCC(=O)NC(c1ccc(Cl)cc1)c1ccc2cccnc2c1O` (configuration not stated), the AC50 is 0.772 µM.

Consider `Cc1cc(C)c(CN2CCN(C(=O)Cn3cnc4c(NCc5ccccc5)ncnc43)CC2)c(C)c1`, for which the AC50 was 0.417 µM.

On to `CN(Cc1ccc(OC(F)F)cc1)C(=O)c1cccc(S(=O)(=O)N2CCN(c3ccccc3)CC2)c1`, for which the AC50 is 2.59 µM.

Take `Cc1sc2ncnc(N3CCN(S(=O)(=O)c4ccc(Br)cc4)CC3)c2c1C`: the AC50 is 3.59 µM.

Take `Cn1nccc1C(=O)NC1CCCc2c1cnn2-c1ccccc1F` (configuration not stated): the AC50 was 0.37 µM.

Take `CCOC(=O)C1CCN(C(=O)c2ccc(OCC(=O)Nc3cccc(C(F)(F)F)c3)c(OC)c2)CC1`: the AC50 was 1.75 µM.

As for `CCN1CCN(Cc2ccc(NC(=O)c3ccc(C)c(NC(=O)c4c[nH]c5cc(C(F)(F)F)ccc5c4=O)c3)cc2C(F)(F)F)CC1`, the AC50 was 3.13 µM.

As for `CCOC(=O)c1c(CSc2ccc(CC)cc2)oc2ccc(O)c(CN(C)C)c12`, the AC50 is 3.05 µM.

`CN(c1ccccc1)c1ccc(/C=C/[N+](=O)[O-])cc1`: the AC50 is 5.79 µM.

As for `O=C(Nc1nc(-c2ccccn2)cs1)c1ccc(Cl)s1`, the AC50 was 0.817 µM.

With `CCc1ccccc1NC(=O)COC(=O)c1c(C)nsc1NC`, the AC50 was 2.48 µM.

On to `c1csc(CNc2ncnc3sccc23)c1`, for which the AC50 is 1.8 µM.

In the case of `CCN(CC)S(=O)(=O)c1cc(NC(=O)C2CCN(c3ncnc4sc(C)c(C)c34)CC2)ccc1Cl`, the AC50 was 5.08 µM.

`O=S(=O)(/C(=C\c1ccc(C(F)(F)F)cc1)c1nc2ccccc2[nH]1)c1ccccc1`: the AC50 was 1.85 µM.

As for `Cc1cccc(N2C(=O)NC(=O)/C(=C\C=C\c3ccco3)C2=O)c1`, the AC50 was 3.06 µM.

As for `Cn1cc([N+](=O)[O-])c(C(=O)Nc2sc3c(c2C#N)CCC3)n1`, the AC50 is 0.88 µM.

For `CCCCC(=O)NC(c1cccc([N+](=O)[O-])c1)c1ccc2cccnc2c1O` (configuration not stated), the AC50 was 1 µM.

For orientation: AC50 means the concentration giving half of the maximal activity seen.
